Test results: patent US20250206732A1, “COMPOUNDS AND METHODS FOR THE TARGETED DEGRADATION OF KRAS” (Arvinas Operations, Inc., priority 2022, published 2025)

Molecular target: T1, AsPC-1 HiBiT-KRASG12D (Homo sapiens, UniProt P01116, G12D)
T1 construct: insert the HiBiT tag onto the N-terminus of one or more of the endogenous KRAS alleles; endogenous in cells; host or cells: AsPC-1 (ATCC CRL-1682), CRISPR-Cas9 knock-in clone, one tagged allele
Assay: HiBiT degradation assay (G12D), AsPC-1 HiBiT-KRASG12D cells
Type: cell-based
Details: 24 hours treatment; for Dmax: ASPC1, AsPC-1 HiBiT-KRASG12D cells, maximum degradation observed; for DC50: AsPC-1 HiBiT-KRASG12D cells, HiBiT luminescence
Summary of the method: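 In this degradation format, an engineered AsPC-1 clone with HiBiT fused to the KRAS N-terminus is exposed to compounds for 24 hours, after which remaining tagged protein is quantified by lytic HiBiT luminescence.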

T1 sequence (P01116 1-188 isoform P01116-2 G12D): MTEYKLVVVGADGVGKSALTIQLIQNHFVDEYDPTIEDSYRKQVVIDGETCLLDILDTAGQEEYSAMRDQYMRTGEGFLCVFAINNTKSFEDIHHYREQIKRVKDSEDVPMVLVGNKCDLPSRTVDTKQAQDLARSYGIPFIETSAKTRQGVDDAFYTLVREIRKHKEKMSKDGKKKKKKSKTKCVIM

| Structure (SMILES) | Dmax [%] | DC50 [µM] |
| --- | --- | --- |
| CCc1cccc2cc(O)cc(-c3ncc4c(N5CC6CCC(C5)N6)nc(OC[C@]56CCCN5[C@@H](COC(=O)NCc5cc([C@H](C(=O)N7C[C@H](O)C[C@H]7C(=O)N[C@@H](C)c7ccc(-c8scnc8C)cc7)C(C)C)on5)CC6)nc4c3F)c12 [Compound 102, [(3R,7aR)-7a-{[(4-{3,8-diazabicyclo[3.2.1]octan-3-yl}-7-(8-ethyl-3-hydroxynaphthalen-1-yl)-8-fluoropyrido[4,3-d]pyrimidin-2-yl)oxy]methyl}-hexahydro-1H-pyrrolizin-3-yl]methyl N-({5-[(2R)-1-[(2S,4R)-4-hydroxy-2-{[(1S)-1-[4-(4-methyl-1,3-thiazol-5-yl)phenyl]ethyl]carbamoyl}pyrrolidin-1-yl]-3-methyl-1-oxobutan-2-yl]-1,2-oxazol-3-yl}methyl) carbamate] | 80 to 100 | < 0.6 |
| CCc1cccc2cc(O)cc(-c3ncc4c(N5CC6CCC(C5)N6)nc(OC[C@]56CCCN5[C@@H](COC(=O)NCc5cc([C@@H](C(=O)N7C[C@H](O)C[C@H]7C(=O)N[C@@H](C)c7ccc(-c8scnc8C)cc7)C(C)C)on5)CC6)nc4c3F)c12 [Compound 103, [(3R,7aR)-7a-{[(4-{3,8-diazabicyclo[3.2.1]octan-3-yl}-7-(8-ethyl-3-hydroxynaphthalen-1-yl)-8-fluoropyrido[4,3-d]pyrimidin-2-yl)oxy]methyl}-hexahydro-1H-pyrrolizin-3-yl]methyl N-({5-[(2S)-1-[(2S,4R)-4-hydroxy-2-{[(1S)-1-[4-(4-methyl-1,3-thiazol-5-yl)phenyl]ethyl]carbamoyl}pyrrolidin-1-yl]-3-methyl-1-oxobutan-2-yl]-1,2-oxazol-3-yl}methyl) carbamate] | 20 to 60 | 1 to 3 |
| CCc1cccc2cc(O)cc(-c3ncc4c(N5CC6CCC(C5)N6)nc(OC[C@@]56CCCN5[C@H](COC(=O)NCc5cc([C@H](C(=O)N7C[C@H](O)C[C@H]7C(=O)N[C@@H](C)c7ccc(-c8scnc8C)cc7)C(C)C)on5)CC6)nc4c3F)c12 [Compound 104, [(3S,7aS)-7a-{[(4-{3,8-diazabicyclo[3.2.1]octan-3-yl}-7-(8-ethyl-3-hydroxynaphthalen-1-yl)-8-fluoropyrido[4,3-d]pyrimidin-2-yl)oxy]methyl}-hexahydro-1H-pyrrolizin-3-yl]methyl N-({5-[(2R)-1-[(2S,4R)-4-hydroxy-2-{[(1S)-1-[4-(4-methyl-1,3-thiazol-5-yl)phenyl]ethyl]carbamoyl}pyrrolidin-1-yl]-3-methyl-1-oxobutan-2-yl]-1,2-oxazol-3-yl}methyl) carbamate] | 80 to 100 | < 0.6 |
| CCc1cccc2cc(O)cc(-c3ncc4c(N5CC6CCC(C5)N6)nc(OC[C@]56CCCN5[C@H](COC(=O)N5CCN(c7cc([C@H](C(=O)N8C[C@H](O)C[C@H]8C(=O)N[C@@H](C)c8ccc(-c9scnc9C)cc8)C(C)C)on7)CC5)CC6)nc4c3F)c12 [Compound 105, [(3S,7aR)-7a-{[(4-{3,8-diazabicyclo[3.2.1]octan-3-yl}-7-(8-ethyl-3-hydroxynaphthalen-1-yl)-8-fluoropyrido[4,3-d]pyrimidin-2-yl)oxy]methyl}-hexahydro-1H-pyrrolizin-3-yl]methyl 4-{5-[(2R)-1-[(2S,4R)-4-hydroxy-2-{[(1S)-1-[4-(4-methyl-1,3-thiazol-5-yl)phenyl]ethyl]carbamoyl}pyrrolidin-1-yl]-3-methyl-1-oxobutan-2-yl]-1,2-oxazol-3-yl}piperazine-1-carboxylate] | 80 to 100 | < 0.6 |
| CCc1cccc2cc(O)cc(-c3ncc4c(N5CC6CCC(C5)N6)nc(OC[C@@]56CCCN5[C@@H](COC(=O)N5CCN(c7cc([C@H](C(=O)N8C[C@H](O)C[C@H]8C(=O)N[C@@H](C)c8ccc(-c9scnc9C)cc8)C(C)C)on7)CC5)CC6)nc4c3F)c12 [Compound 106, [(3R,7aS)-7a-{[(4-{3,8-diazabicyclo[3.2.1]octan-3-yl}-7-(8-ethyl-3-hydroxynaphthalen-1-yl)-8-fluoropyrido[4,3-d]pyrimidin-2-yl)oxy]methyl}-hexahydro-1H-pyrrolizin-3-yl]methyl 4-{5-[(2R)-1-[(2S,4R)-4-hydroxy-2-{[(1S)-1-[4-(4-methyl-1,3-thiazol-5-yl)phenyl]ethyl]carbamoyl}pyrrolidin-1-yl]-3-methyl-1-oxobutan-2-yl]-1,2-oxazol-3-yl}piperazine-1-carboxylate] | 80 to 100 | < 0.6 |
| CCc1cccc2cc(O)cc(-c3ncc4c(N5CC6CCC(C5)N6)nc(OC[C@]56CCCN5[C@H](CN5CCC(COc7cc([C@H](C(=O)N8C[C@H](O)C[C@H]8C(=O)N[C@@H](C)c8ccc(-c9scnc9C)cc8)C(C)C)on7)CC5)CC6)nc4c3F)c12 [Compound 111, (2S,4R)-1-[(2R)-2-{3-[(1-{[(3S,7aR)-7a-{[(4-{3,8-diazabicyclo[3.2.1]octan-3-yl}-7-(8-ethyl-3-hydroxynaphthalen-1-yl)-8-fluoropyrido[4,3-d]pyrimidin-2-yl)oxy]methyl}-hexahydro-1H-pyrrolizin-3-yl]methyl}piperidin-4-yl)methoxy]-1,2-oxazol-5-yl}-3-methylbutanoyl]-4-hydroxy-N-[(1S)-1-[4-(4-methyl-1,3-thiazol-5-yl)phenyl]ethyl]pyrrolidine-2-carboxamide] | 80 to 100 | < 0.6 |
| CCc1cccc2cc(O)cc(-c3ncc4c(N5CC6CCC(C5)N6)nc(OC[C@@]56CCCN5[C@H](COC(=O)N5CC7(C5)CN(c5cc([C@H](C(=O)N8C[C@H](O)C[C@H]8C(=O)N[C@@H](C)c8ccc(-c9scnc9C)cc8)C(C)C)on5)C7)CC6)nc4c3F)c12 [Compound 112, [(3S,7aS)-7a-{[(4-{3,8-diazabicyclo[3.2.1]octan-3-yl}-7-(8-ethyl-3-hydroxynaphthalen-1-yl)-8-fluoropyrido[4,3-d]pyrimidin-2-yl)oxy]methyl}-hexahydro-1H-pyrrolizin-3-yl]methyl 6-{5-[(2R)-1-[(2S,4R)-4-hydroxy-2-{[(1S)-1-[4-(4-methyl-1,3-thiazol-5-yl)phenyl]ethyl]carbamoyl}pyrrolidin-1-yl]-3-methyl-1-oxobutan-2-yl]-1,2-oxazol-3-yl}-2,6-diazaspiro[3.3]heptane-2-carboxylate] | 80 to 100 | < 0.6 |
| CCc1cccc2cc(O)cc(-c3ncc4c(N5CC6CCC(C5)N6)nc(OC[C@@]56CCCN5[C@H](COC(=O)N5CC7(C5)CN(c5cc([C@@H](C(=O)N8C[C@H](O)C[C@H]8C(=O)N[C@@H](C)c8ccc(-c9scnc9C)cc8)C(C)C)on5)C7)CC6)nc4c3F)c12 [Compound 113, [(3S,7aS)-7a-{[(4-{3,8-diazabicyclo[3.2.1]octan-3-yl}-7-(8-ethyl-3-hydroxynaphthalen-1-yl)-8-fluoropyrido[4,3-d]pyrimidin-2-yl)oxy]methyl}-hexahydro-1H-pyrrolizin-3-yl]methyl 6-{5-[(2S)-1-[(2S,4R)-4-hydroxy-2-{[(1S)-1-[4-(4-methyl-1,3-thiazol-5-yl)phenyl]ethyl]carbamoyl}pyrrolidin-1-yl]-3-methyl-1-oxobutan-2-yl]-1,2-oxazol-3-yl}-2,6-diazaspiro[3.3]heptane-2-carboxylate] | 20 to 60 | < 0.6 |
